In patent publication US6291247A, “Methods of screening for factors that disrupt neurotrophin conformation and reduce neurotrophin biological activity” (priority 1996, dated 2001):
Entries after “also recorded” stand apart in the source; their conditions may differ. Bridges are numbered along the chain shown (N, C = ends).

Experiments:
p75^NTR and TrkA [1] = tested on: T1, p75^NTR and TrkA; test: Binding of 125I-NGF to PC12 cells (p75NTR + TrkA); design: species or system rat; details: 100 μM; CaEDTA together with Zn2+
T1 construct: these cells express both NGF receptor types; endogenous in cells; host or cells: PC12 rat pheochromocytoma cells
Protocol: (§1) PC12 cells were grown in RPMI with 10% heat inactivated donor horse serum and 5% fetal calf serum. […] The tubes were incubated for 2 hr at 4° C. and 100 μl aliquots (providing triplicate data points for each sample) were transferred to 400 μl microcentrifuges containing 200 μl of 10% glycerol in HKR. Tubes were centrifuged for 2 minutes at 5,000 rpm, the tip containing the cell pellet cut off and radioactivity bound to the cells was determined.
T1 sequence (P01139 122-239): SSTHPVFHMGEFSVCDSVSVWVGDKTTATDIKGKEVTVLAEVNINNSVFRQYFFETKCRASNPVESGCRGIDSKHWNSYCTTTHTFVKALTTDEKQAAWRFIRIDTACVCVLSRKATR

p75^NTR and TrkA [2] = test: Binding of 125I-NGF to PC12 cells (p75NTR + TrkA); design: species or system rat; details: above 100 μM
Protocol: as §1

p75^NTR and TrkA [3] = biological target: T2, p75^NTR and TrkA (Mus musculus, UniProt P01139); test: Binding of 125I-NGF to PC12 cells (p75NTR + TrkA); design: species or system rat; details: 120 min; for steady-state specific binding of 125I-NGF (0.5 nM) to p75NTR and TrkA: ± SEM
T2 construct: these cells express both NGF receptor types; endogenous in cells; host or cells: PC12 rat pheochromocytoma cells
T2 sequence (P01139 122-239): as above
Protocol: as §1

NGF = biological target: T3, NGF (Mus musculus, UniProt P01139); test: Cross-linking of NGF protomers in a cell-free system (Example 6); format: biochemical
T3 construct: homodimer
T3 sequence (P01139 122-239): as above
From the text: That is, under denaturing conditions, NGF normally dissociates and electrophoreses as a monomer (FIG. 8, lane 1). In contrast, native NGF dimers that had been covalently cross-linked by BS^3 were unable to dissociate and were resolved from free monomer as a more slowly migrating band on the gel (FIG. 8, lane 2).

BDNF = details: Rashid et al. 1995; cited from earlier work

Compound	Inhibition of 125I-NGF binding (p75^NTR and TrkA [1])	Non-specific binding of 125I-NGF (p75^NTR and TrkA [2])	steady-state specific binding of 125I-NGF (0.5 nM) to p75NTR and TrkA (p75^NTR and TrkA [3]; 10 μM) [% Control]	steady-state specific binding of 125I-NGF (0.5 nM) to p75NTR and TrkA (p75^NTR and TrkA [3]; 30 μM) [% Control]	steady-state specific binding of 125I-NGF (0.5 nM) to p75NTR and TrkA (p75^NTR and TrkA [3]; 50 μM) [% Control]	Total Binding to PC12 cells (p75^NTR and TrkA [3]; 100 μM, 125I-NGF) [% control]	steady-state specific binding of 125I-NGF (0.5 nM) to p75NTR and TrkA (p75^NTR and TrkA [3]; 100 μM) [% Control]	NGF protomer cross-linking to BSA (NGF; 100 μM R11)	Cross-linking of NGF promoters by BS3 (NGF; 100 μM R11, cell-free)	Antagonism of BDNF in vitro (BDNF)
[Zn+2] [Zn^2+]	effectively blocked binding	altered non-specific binding	88 ± 13	82 ± 10	44 ± 13	21 ± 5	19 ± 9	–	–	–
NH2 -Cys-Gly-Ser-Glu-Val-Pro-Asn-Ser-Ala-Arg-Cys-Cys-Val-Cys-OH (H-CGSEVPNSARCCVC-OH; disulfide 1-14, 11-12) [R11, bicyclic peptide of NGF residues 68-58/108-110, two disulfide bonds]	–	–	–	–	–	–	–	increased dramatically	reduced almost to the point of elimination; also recorded: loss of NGF dimer	effective antagonist
